Results published in patent publication US5258492A, “LHRH analogues with cytotoxic moieties at the sixth position” (The Administrators of the Tulane Educational Fund, priority 1991, dated 1993).

Columns and labels:
[1] = target: T1, membrane receptors of pituitary of male rats (Rattus norvegicus, UniProt P30969); experiment: Binding affinity for membrane receptors of rat pituitary using 125I-labeled [D-Trp6]LHRH
T1 construct: from tissue; host or cells: pituitary of male rats (membranes)
T1 sequence (P30969 1-327): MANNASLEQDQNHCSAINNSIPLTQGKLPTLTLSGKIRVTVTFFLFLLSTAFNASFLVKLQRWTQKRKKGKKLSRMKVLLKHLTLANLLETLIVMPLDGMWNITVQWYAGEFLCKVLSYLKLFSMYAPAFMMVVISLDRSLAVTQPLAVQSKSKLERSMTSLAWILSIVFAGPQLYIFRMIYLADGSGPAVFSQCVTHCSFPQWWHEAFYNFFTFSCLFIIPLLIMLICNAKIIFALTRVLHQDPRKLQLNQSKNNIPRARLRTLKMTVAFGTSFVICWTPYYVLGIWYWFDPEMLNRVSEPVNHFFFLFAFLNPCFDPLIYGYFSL
Procedure: (§1) This is determined by using labelled LHRH and [D-Trp^6 ]LHRH. The assay is carried out similarly to that described by T. Kadar et al., Proc. Natl. Acad. Sci. USA, 85, 890-894 (1988).
(§2) Table 2 presents the antiovulatory activity of the claimed compounds having LHRH-inhibiting properties. The inhibitory action was determined in vivo, in 4-day cycling rats as described [A. Corbin and C. W. Beattie, Endocr. Res. Commun., 2, 1-23 (1975)]. Affinities of the claimed compounds to membrane receptors of rat pituitary and human breast cancer cells are also given in Tables 1 and 2 as determined by using [^125 I,D-Trp^6 ]LHRH.
(§3) **Affinity constants of the peptides for the first receptor class (i.e.
(§4) for high affinity binding sites) of pituitary of male rats and human
(§5) breast cancer cells, respectively, as determined by using ^125
(§6) Ilabeled [DTrp^6 ]LHRH.
(§7) breast cancer cells, respectively, were determined by using ^125

[2] = system: dispersed rat pituitary cell superfusion system; experiment: LH release in dispersed rat pituitary cell superfusion system (agonistic activity); assay type: cell-based; conditions: Table 1; peptide infused 3 min, LH released compared to 3 nM LHRH
Procedure: *LH responses to the analogues were determined in dispersed rat pituitary
cell superfusion system.

[3] = target: T2, membrane receptors of human breast cancer cells (Homo sapiens, UniProt P30968); experiment: Binding affinity for membrane receptors of human breast cancer cells using 125I-labeled [D-Trp6]LHRH
T2 construct: endogenous in cells; host or cells: human breast cancer cells (membranes)
T2 sequence (P30968 1-328): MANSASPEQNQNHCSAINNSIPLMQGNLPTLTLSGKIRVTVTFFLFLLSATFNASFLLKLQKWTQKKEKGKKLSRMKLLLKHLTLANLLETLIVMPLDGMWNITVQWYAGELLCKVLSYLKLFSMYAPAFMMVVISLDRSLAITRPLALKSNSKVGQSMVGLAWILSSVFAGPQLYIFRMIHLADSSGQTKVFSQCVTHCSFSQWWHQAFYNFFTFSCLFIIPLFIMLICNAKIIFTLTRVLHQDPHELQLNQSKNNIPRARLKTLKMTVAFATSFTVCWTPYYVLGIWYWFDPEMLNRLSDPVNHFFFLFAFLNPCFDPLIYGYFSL
Procedure: as §1, §2, §3, §4, §5, §6, §7

4-day cycling rats = experiment: In vivo antiovulatory activity in 4-day cycling rats; parameters: species or system rat
Procedure: This activity of the peptides is determined in 4-day-cycling rats as described [A. Corbin and C. W. Beattie, Endocr. Res. Commun., 2, 1-23 (1975)].
as §2
*LHRH-inhibiting potencies were assayed in 4day cyclic rats.

[4] = system: rat mammary tumor cell line MT-4; experiment: Inhibition of 3H-thymidine incorporation into DNA of MT-4 monolayer cultures; assay type: cell-based; conditions: for DPM/Well × 1000: mean +/- standard error
Procedure: (d) Ability of peptides of Formula I to inhibit incorporation of [^3 H]thymidine into DNA of monolayer cultures the rat mammary tumor cell line MT-4
This is assayed as described [V. K. Sondak et al., Cancer Research, 44, 1725-1728 (1984); F. Holzel et al., J. Cancer Res. Clin. Oncol. 109, 217-226 (1985); M. Albert et al., J. Cancer Res. Clin. Oncol. 109, 210-216 (1985)].
To obtain information about the cytotoxic properties of the compounds, the inhibition of ^3 H-thymidine incorporation into DNA of monolayer cultures of the rat mammary tumor cell line MT-4 was studied. Experiments started with 100K MT-4 cells/plate on day 0. Dose was changed 3 times, total incubation time with the sample was 5 days. 1 μCu ^3 H-thymidine/ml was added on day 4.

[5] = Table 1, high affinity binding sites
[6] = Table 2, high affinity binding sites
[7] = DME Medium + 0% Serum, 1 ng/ml (6 × 10^-10 M)
[8] = DME Medium + 0% Serum, 10 ng/ml
[9] = DME Medium + 0% Serum, 100 ng/ml
[10] = DME Medium + 0% Serum, 1000 ng/ml
[11] = DME Medium + 0% Serum, 2000 ng/ml
[12] = DME Medium + 10% Serum, 1 ng/ml (6 × 10^-10 M)
[13] = DME Medium + 10% Serum, 10 ng/ml
[14] = DME Medium + 10% Serum, 100 ng/ml
[15] = DME Medium + 10% Serum, 1000 ng/ml
[16] = DME Medium + 10% Serum, 2000 ng/ml

pGlu-His-Trp-Ser-Tyr-D-Lys[(PtCl2)(DL-A2 pr)]-Leu-Arg-Pro-Gly-NH2 [Example III]
Binding affinity, Ka1, for membrane receptors of pituitary [1, 5]: 3.285 nM⁻¹
Hormonal activity, LH responses rel. to LHRH (= 1) [2]: 55
Binding affinity, Ka1, for membrane receptors of cancer cells [3, 5]: 1.743 nM⁻¹

Ac-D-Nal(2)-D-Phe(4Cl)-D-Pal(3)-Ser-Arg-D-Lys[(Cu^++)(POLP)2 (DL-A2 pr)]-Leu-Arg-Pro-D-Ala-NH2 [Example XX]
Binding affinity, Ka1, for membrane receptors of pituitary [1, 6]: 5.250 nM⁻¹
Binding affinity, Ka1, for membrane receptors of cancer cells [3, 6]: 2.436 nM⁻¹
% Blockade of ovulation (4-day cycling rats; Dose 3 μg/rat): 80%

pGlu-His-Trp-Ser-Tyr-D-Lys[(Cu^++)(FUR)2 (DL-A2 pr)]-Leu-Arg-Pro-Gly-NH2 [XVII]
Binding affinity, Ka1, for membrane receptors of pituitary [1, 5]: 1.770 nM⁻¹
Hormonal activity, LH responses rel. to LHRH (= 1) [2]: 10
Binding affinity, Ka1, for membrane receptors of cancer cells [3, 5]: 0.536 nM⁻¹

pGlu-His-Trp-Ser-Tyr-D-Lys[(Cu^++)(POL)2 (DL-A2 bu)]-Leu-Arg-Pro-Gly-NH2 [XXV]
Binding affinity, Ka1, for membrane receptors of pituitary [1, 5]: 6.405 nM⁻¹
Hormonal activity, LH responses rel. to LHRH (= 1) [2]: 5.5
Binding affinity, Ka1, for membrane receptors of cancer cells [3, 5]: 3.141 nM⁻¹

pGlu-His-Trp-Ser-Tyr-D-Lys[Cu^++)(POL)2 (DL-A2 pr)]-Leu-Arg-Pro-Gly-NH2 [XVIII]
Binding affinity, Ka1, for membrane receptors of pituitary [1, 5]: 5.817 nM⁻¹
Hormonal activity, LH responses rel. to LHRH (= 1) [2]: 9
Binding affinity, Ka1, for membrane receptors of cancer cells [3, 5]: 3.005 nM⁻¹

pGlu-His-Trp-Ser-Tyr-D-Lys[(Cu^++)(PEN)2 (A2 pr)]-Leu-Arg-Pro-Gly-NH2 [Example XXI]
Binding affinity, Ka1, for membrane receptors of pituitary [1, 5]: 10.989 nM⁻¹
Hormonal activity, LH responses rel. to LHRH (= 1) [2]: 10.6
Binding affinity, Ka1, for membrane receptors of cancer cells [3, 5]: 5.096 nM⁻¹

Ac-D-Nal(2)-D-Phe(4Cl)-D-Pal(3)-Ser-Arg-D-Lys[(Cu^++)(POL)2 (DL-A2 pr)]-Leu-Arg-Pro-D-Ala-NH2 [XXIV]
Binding affinity, Ka1, for membrane receptors of pituitary [1, 6]: 5.483 nM⁻¹
Binding affinity, Ka1, for membrane receptors of cancer cells [3, 6]: 2.628 nM⁻¹
% Blockade of ovulation (4-day cycling rats; Dose 3 μg/rat): 50%

pGlu-His-Trp-Ser-Tyr-D-Lys[(Cu^++)(CISAL)2 (DL-A2 pr)]-Leu-Arg-Pro-Gly-NH2 [Example IX]
Binding affinity, Ka1, for membrane receptors of pituitary [1, 5]: 8.625 nM⁻¹
Hormonal activity, LH responses rel. to LHRH (= 1) [2]: 10
Binding affinity, Ka1, for membrane receptors of cancer cells [3, 5]: 3.995 nM⁻¹

[D-Lys[(Ni^++)(SAL)2(D-A2 pr)]^6 ]LHRH [VIIIB]
Binding affinity, Ka1, for membrane receptors of pituitary [1, 5]: 6.457 nM⁻¹
Hormonal activity, LH responses rel. to LHRH (= 1) [2]: 10
Binding affinity, Ka1, for membrane receptors of cancer cells [3, 5]: 3.334 nM⁻¹

pGlu-His-Trp-Ser-Tyr-D-Lys[Cu^++)(POLP)2 (A2 pr)]-Leu-Arg-Pro-Gly-NH2 [XIX]
Binding affinity, Ka1, for membrane receptors of pituitary [1, 5]: 8.676 nM⁻¹
Hormonal activity, LH responses rel. to LHRH (= 1) [2]: 0.3
Binding affinity, Ka1, for membrane receptors of cancer cells [3, 5]: 4.528 nM⁻¹

Ac-D-Nal(2)-D-Phe(4 Cl)-D-Trp-Ser-Arg-D-Lys[(Cu^++)(POL)2 (DL-A2 pr)]-Leu-Arg-Pro-D-Ala-NH2 [Example XXIII]
Binding affinity, Ka1, for membrane receptors of pituitary [1, 6]: 7.622 nM⁻¹
Binding affinity, Ka1, for membrane receptors of cancer cells [3, 6]: 3.408 nM⁻¹
% Blockade of ovulation (4-day cycling rats; Dose 10 μg/rat): 40%

pGlu-His-Trp-Ser-Tyr-D-Lys[(Cu^++)(SAL)2 (A2 pr)]-Leu-Arg-Pro-Gly-NH2 [Example VII]
Binding affinity, Ka1, for membrane receptors of pituitary [1, 5]: 7.968 nM⁻¹
Hormonal activity, LH responses rel. to LHRH (= 1) [2]: 10
Binding affinity, Ka1, for membrane receptors of cancer cells [3, 5]: 3.589 nM⁻¹
% Inhibition [4, 7]: 41%
DPM/Well × 1000 [4, 7]: 249 +/- 30.5 DPM/Well × 1000
% Inhibition [4, 8]: 42%
DPM/Well × 1000 [4, 8]: 242 +/- 32.1 DPM/Well × 1000
% Inhibition [4, 9]: 56%
DPM/Well × 1000 [4, 9]: 186 +/- 13.2 DPM/Well × 1000
% Inhibition [4, 10]: 52%
DPM/Well × 1000 [4, 10]: 204 +/- 40.9 DPM/Well × 1000
% Inhibition [4, 11]: 41%
DPM/Well × 1000 [4, 11]: 249 +/- 45.1 DPM/Well × 1000
% Inhibition [4, 12]: 53%
DPM/Well × 1000 [4, 12]: 48 +/- 8.6 DPM/Well × 1000
% Inhibition [4, 13]: 61%
DPM/Well × 1000 [4, 13]: 40 +/- 6.7 DPM/Well × 1000
% Inhibition [4, 14]: 59%
DPM/Well × 1000 [4, 14]: 42 +/- 10.4 DPM/Well × 1000
% Inhibition [4, 15]: 65%
DPM/Well × 1000 [4, 15]: 36 +/- 5.1 DPM/Well × 1000
% Inhibition [4, 16]: 62%
DPM/Well × 1000 [4, 16]: 39 +/- 4.6 DPM/Well × 1000
inhibition of 3H-thymidine incorporation into DNA (in words) ([4]; concentration of 6×10^-10 M): strong inhibitory effect

Ac-D-Nal(2)-D-Phe(4Cl)-D-Trp-Ser-Arg-D-Lys[(Cu^++)(POLP)2 (DL-A2 pr)]-Leu-Arg-Pro-D-Ala-NH2 [Example XXII]
Binding affinity, Ka1, for membrane receptors of pituitary [1, 6]: 2.901 nM⁻¹
Binding affinity, Ka1, for membrane receptors of cancer cells [3, 6]: 1.337 nM⁻¹
% Blockade of ovulation (4-day cycling rats; Dose 10 μg/rat): 60%

pGlu-His-Trp-Ser-Tyr-D-Lys[(Ni^++)(CISAL)2 (DL-A2 pr)]-Leu-Arg-Pro-Gly-NH2 [Example X]
Binding affinity, Ka1, for membrane receptors of pituitary [1, 5]: 4.513 nM⁻¹
Hormonal activity, LH responses rel. to LHRH (= 1) [2]: 4
Binding affinity, Ka1, for membrane receptors of cancer cells [3, 5]: 2.236 nM⁻¹

Ac-D-Nal(2)-D-Phe(4Cl)-D-Pal(3)-Ser-Arg-D-Lys[(Cu^++)(SAL)2 (A2 bu-Eac)]-Leu-Arg-Pro-D-Ala-NH2 [XXVIII]
Binding affinity, Ka1, for membrane receptors of cancer cells [3, 6]: 0.192 nM⁻¹

Ac-D-Nal(2)-D-Phe(4Cl)-D-Pal(3)-Ser-Arg-D-Lys[(PtCl2)-A2 bu-Eac)]-Leu-Arg-Pro-D-Ala-NH2 [XXVII]
Binding affinity, Ka1, for membrane receptors of cancer cells [3, 6]: 2.152 nM⁻¹

[D-Lys[(Ni^++)(SAL)2(L-A2 pr)]^6 ]LHRH [VIIIA]
Binding affinity, Ka1, for membrane receptors of pituitary [1, 5]: 9.710 nM⁻¹
Hormonal activity, LH responses rel. to LHRH (= 1) [2]: 12
Binding affinity, Ka1, for membrane receptors of cancer cells [3, 5]: 5.234 nM⁻¹

[D-Lys[(Cu^++)(SAL)2 (L-A2 pr)]^6 ]LHRH [VIA]
Binding affinity, Ka1, for membrane receptors of pituitary [1, 5]: 3.051 nM⁻¹
Hormonal activity, LH responses rel. to LHRH (= 1) [2]: 12
Binding affinity, Ka1, for membrane receptors of cancer cells [3, 5]: 1.348 nM⁻¹

pGlu-His-Trp-Ser-Tyr-D-Lys[(Cu^++)(POLP)2 (DL-A2 bu)]-Leu-Arg-Pro-Gly-NH2 [Example XVI]
Binding affinity, Ka1, for membrane receptors of pituitary [1, 5]: 9.751 nM⁻¹
Hormonal activity, LH responses rel. to LHRH (= 1) [2]: 1.5
Binding affinity, Ka1, for membrane receptors of cancer cells [3, 5]: 5.038 nM⁻¹

pGlu-His-Trp-Ser-Tyr-D-Lys[(Cu^++)(SAL)2 (DL-A2 bu)]-Leu-Arg-Pro-Gly-NH2 [XIV]
Binding affinity, Ka1, for membrane receptors of pituitary [1, 5]: 5.589 nM⁻¹
Hormonal activity, LH responses rel. to LHRH (= 1) [2]: 25
Binding affinity, Ka1, for membrane receptors of cancer cells [3, 5]: 1.628 nM⁻¹
